24 compounds from patent publication US9670204B2, “Compounds and pharmaceutical compositions thereof for the treatment of inflammatory disorders” (Galapagos NV, priority 2013, dated 2017) can be followed below.

The target of the first experiment is T1, hENPP2 (UniProtKB/SwissProt Q13822) (Homo sapiens (Human), UniProt Q13822). Nature of the experiment: hENPP2 biochemical assay, LPC as substrate. The conditions noted are these: LPC (palmitoyl 16:0) as substrate. The protocol: The principle of the assay consists in quantifying the released choline with an enzymatic method using choline oxidase and peroxidase. Choline oxydation by choline oxydase releases betaine and peroxide. The latter is quantified in presence of HRP that converts the peroxide detection agent TOOS and 4-aminoantipyrine into quinoneimine dye. The appearance of quinoneimine dye is measured spectrophotometrically at 555 nm and is proportional to the amount of choline released by ENPP2. Inhibition of ENPP2 will result in a decrease of the signal.
Compound IC50 values are determined in a hENPP2 (UniProtKB/SwissProt Sequence ref Q13822) biochemical assay using LPC as substrate.
The enzyme is diluted in 50 mM Tris-HCl pH 8.5, 500 mM NaCl, 5 mM KCl, 10 mM CaCl2, 0.1% fatty acid free BSA in a total volume of 10 μL. the reaction is started by the addition of 10 μL of 150 μM LPC (palmitoyl 16:0) diluted in the same buffer as described above and the mixture is incubated at 37° C. for 30 min. The reaction is terminated and choline quantified by the addition of a 25 μL of a mixture containing 0.6 U/mL of choline oxidase, 0.6 U/mL of peroxydase, 1.8 mM TOOS, 1.2 mM amino-antipyrine, 20 mM EGTA (stop-developer solution) diluted in the buffer described above. […] is read on the Envision after an incubation of 30 min at room temperature (Excitation 555 nm, excitation light=70%).
For `CCc1nc2ccc(N3CCN(C(=O)C4CCC(=O)N4)CC3)cn2c1N(C)c1nc(-c2ccc(F)cc2)cs1` (stereo not shown) [Compound 201, 5-(4-(2-ethyl-3-((4-(4-fluorophenyl)thiazol-2-yl)(methyl)amino)imidazo[1,2-a]pyridin-6-yl)piperazine-1-carbonyl)pyrrolidin-2-one], the IC50 (as a rule, the concentration at which inhibition is half-maximal) is over 1000 nM.
The same measure, in the same setting: the value for `CCc1nc2ccc(N3CCN(C(=O)CO)CC3)cn2c1N(C)c1nc(-c2ccc(F)cc2)cs1` [Compound 50, 1-(4-(2-ethyl-3-((4-(4-fluorophenyl)thiazol-2-yl)(methyl)amino)imidazo[1,2-a]pyridin-6-yl)piperazin-1-yl)-2-hydroxyethanone] was 500 to 1000 nM; that for `CCc1nc2ccc(N3CCN(CC(=O)N(C)C)CC3)cn2c1N(C)c1nc(-c2ccc(F)cc2C#N)cs1` [Compound 168, 2-(4-(3-((4-(2-cyano-4-fluorophenyl)thiazol-2-yl)(methyl)amino)-2-ethylimidazo[1,2-a]pyridin-6-yl)piperazin-1-yl)-N,N-dimethylacetamide] was 0.01 to 100 nM; that for `CCc1nc2ccc(C3=CCN(S(C)(=O)=O)C3)cn2c1N(C)c1nc(-c2ccc(Cl)cc2)cs1` [Compound 68, 4-(4-chlorophenyl)-N-(2-ethyl-6-(1-(methylsulfonyl)-2,5-dihydro-1H-pyrrol-3-yl)imidazo[1,2-a]pyridin-3-yl)-N-methylthiazol-2-amine] was over 1000 nM.
The compound `CCc1nc2ccc(N3CCN(C(=O)C4CCCN4C(=O)OC(C)(C)C)CC3)cn2c1N(C)c1nc(-c2ccc(F)cc2)cs1` (stereo not shown) [Compound 44, tert-butyl 2-(4-(2-ethyl-3-((4-(4-fluorophenyl)thiazol-2-yl)(methyl)amino)imidazo[1,2-a]pyridin-6-yl)piperazine-1-carbonyl)pyrrolidine-1-carboxylate] registered an IC50 of over 1000 nM.
The same measure, in the same setting: the value for `CCc1nc2ccc(C3CCN(S(C)(=O)=O)CC3)cn2c1N(C)c1nc(-c2ccc(C(F)(F)F)cc2)c(CO)s1` [Compound 150, (2-((2-ethyl-6-(1-(methylsulfonyl)piperidin-4-yl)imidazo [1,2-a]pyridin-3-yl)(methyl)amino)-4-(4-(trifluoromethyl)phenyl)thiazol-5-yl) methanol] was 500 to 1000 nM; that for `CCc1nc2ccc(C3CCN(CC(=O)N4CCC(O)C4)CC3)cn2c1N(C)c1nc(-c2ccc(F)cc2)cs1` (stereo not shown) [Compound 223, 2-(4-(2-ethyl-3-((4-(4-fluorophenyl)thiazol-2-yl)(methyl)amino)imidazo[1,2-a]pyridin-6-yl)piperidin-1-yl)-1-(3-hydroxypyrrolidin-1-yl)ethanone] was 100 to 500 nM.
In turn, `CCc1nc2ccc(C3=CCN(S(C)(=O)=O)CC3)cn2c1N(C)c1nc(-c2ccc(F)c(F)c2)cs1` [Compound 73, 4-(3,4-difluorophenyl)-N-(2-ethyl-6-(1-(methylsulfonyl)-1,2,3,6-tetrahydropyridin-4-yl)imidazo[1,2-a]pyridin-3-yl)-N-methylthiazol-2-amine] showed an IC50 of over 1000 nM.
Same read-out and setting: in the case of `CCc1nc2ccc(N3CC(N)C3)cn2c1N(C)c1nc(-c2ccc(F)cc2)cs1` [Compound 177, [6-(3-Amino-azetidin-1-yl)-2-ethyl-imidazo[1,2-a]pyridin-3-yl]-[4-(4-fluoro-phenyl)-thiazol-2-yl]-methyl-amine] it was 500 to 1000 nM.
Same read-out and setting: the value for `CCc1nc2ccc(C3CCN(S(C)(=O)=O)CC3)cn2c1N(C)c1nc(-c2ccc(C(F)(F)F)cc2)cs1` [Compound 84, N-(2-ethyl-6-(1-(methylsulfonyl)piperidin-4-yl)imidazo [1,2-a]pyridin-3-yl)-N-methyl-4-(4-(trifluoromethyl)phenyl) thiazol-2-amine] was over 1000 nM; that for `CCc1nc2ccc(N3CCN(CC(=O)N4CCOCC4)CC3)cn2c1N(C)c1nc(-c2ccc(F)cc2)cs1` [Compound 32, 2-(4-(2-ethyl-3-((4-(4-fluorophenyl)thiazol-2-yl)(methyl)amino)imidazo[1,2-a]pyridin-6-yl)piperazin-1-yl)-1-morpholinoethanone] was 100 to 500 nM.
In the case of `CCc1nc2ccc(C3CCN(C(=O)CCN(C)C)CC3)cn2c1N(C)c1nc(-c2ccc(F)cc2)cs1` [Compound 130, 3-(dimethylamino)-1-(4-(2-ethyl-3-((4-(4-fluorophenyl)thiazol-2-yl)(methyl)amino)imidazo[1,2-a]pyridin-6-yl)piperidin-1-yl)propan-1-one], the IC50 is 100 to 500 nM.
On the same count and under the same terms, the value for `CCc1nc2ccc(N3CCN(CC(N)=O)CC3)cn2c1N(C)c1nc(-c2ccc(F)cc2)cs1` [Compound 33, 2-(4-(2-ethyl-3-((4-(4-fluorophenyl)thiazol-2-yl)(methyl)amino)imidazo[1,2-a]pyridin-6-yl)piperazin-1-yl)acetamide] was 500 to 1000 nM; that for `CCc1nc2ccc(C3CCN(C(=O)CN(C)C)CC3)cn2c1N(C)c1nc(-c2ccc(F)cc2)c(CO)s1` [Compound 153, 2-(dimethylamino)-1-(4-(2-ethyl-3-((4-(4-fluorophenyl)-5-(hydroxymethyl)thiazol-2-yl)(methyl)amino)imidazo[1,2-a]pyridin-6-yl)piperidin-1-yl) ethanone] was 500 to 1000 nM.

Another experiment addresses T1, hENPP2. Nature of the experiment: fluorescent hENPP2 biochemical assay, FS-3 as substrate. As to conditions: read-out: FS3-IC50. The protocol:
Compound IC50 values are determined in a fluorescent hENPP2 (UniProtKB/SwissProt Sequence ref Q13822) biochemical assay using the fluorogenic autotaxin substrate FS-3 as substrate. FS-3 is a doubly labeled analog of LPC wherein the fluorophore is quenched through intramolecular energy transfer. Without hENPP2, the emission of the probe is quenched. If the substrate is hydrolyzed by hENPP2, the emission of the probe is not quenched anymore resulting in a fluorescence increase.
The enzyme is diluted in 50 mM Tris-HCl pH 8.0, 250 mM NaCl, 5 mM KCl, 1 mM MgCl2, 1 mM CaCl2, 0.1% fatty acid free BSA in a total volume of 20 μL. Enzyme mixture is added to compounds and the resulting mixture is incubated for 30 min at room temperature under shaking. The reaction is started by the addition of 20 μL of 0.75 μM FS-3 diluted in the same buffer as described above and the mixture is incubated at 30° C. for 30 min. Fluorescence is read on the Envision (Excitation 485 nm, emission 520 nm).
On to `CCc1nc2ccc(C3=CCSCC3)cn2c1N(C)c1nc(-c2ccc(Cl)cc2)cs1` [Compound 231, 4-(4-chlorophenyl)-N-(6-(3,6-dihydro-2H-thiopyran-4-yl)-2-ethylimidazo[1,2-a]pyridin-3-yl)-N-methylthiazol-2-amine], for which the IC50 lay in the range of 0.01 to 100 nM.
As for `CCc1nc2ccc(N3CCN(C(=O)C4CCC(=O)N4)CC3)cn2c1N(C)c1nc(-c2ccc(F)cc2)cs1` (stereo not shown) [Compound 201, 5-(4-(2-ethyl-3-((4-(4-fluorophenyl)thiazol-2-yl)(methyl)amino)imidazo[1,2-a]pyridin-6-yl)piperazine-1-carbonyl)pyrrolidin-2-one], the 50% inhibitory concentration (IC50) was in the range of 0.01 to 100 nM.
Still for that read-out and setting: the value for `CCc1nc2ccc(N3CCN(C(=O)CO)CC3)cn2c1N(C)c1nc(-c2ccc(F)cc2)cs1` [Compound 50, 1-(4-(2-ethyl-3-((4-(4-fluorophenyl)thiazol-2-yl)(methyl)amino)imidazo[1,2-a]pyridin-6-yl)piperazin-1-yl)-2-hydroxyethanone] was 0.01 to 100 nM.
Consider `CCc1nc2ccc(N3CCNCC3)cn2c1N(C)c1nc(-c2ccc(F)cc2)cs1` [Gen-10-e], for which the IC50 was in the range of 0.01 to 100 nM.
The same measure, in the same setting: in the case of `CCc1nc2ccc(N3CCN(CC(=O)N(C)C)CC3)cn2c1N(C)c1nc(-c2ccc(F)cc2C#N)cs1` [Compound 168, 2-(4-(3-((4-(2-cyano-4-fluorophenyl)thiazol-2-yl)(methyl)amino)-2-ethylimidazo[1,2-a]pyridin-6-yl)piperazin-1-yl)-N,N-dimethylacetamide] it was 0.01 to 100 nM; in that of `CCc1nc2ccc(C3=CCN(S(C)(=O)=O)C3)cn2c1N(C)c1nc(-c2ccc(Cl)cc2)cs1` [Compound 68, 4-(4-chlorophenyl)-N-(2-ethyl-6-(1-(methylsulfonyl)-2,5-dihydro-1H-pyrrol-3-yl)imidazo[1,2-a]pyridin-3-yl)-N-methylthiazol-2-amine], 0.01 to 100 nM; in that of `CCc1nc2ccc(C3CCN(CC4CCCCC4)CC3)cn2c1N(C)c1nc(-c2ccc(F)cc2)cs1` [Compound 235, N-(6-(1-(cyclohexylmethyl)piperidin-4-yl)-2-ethylimidazo[1,2-a]pyridin-3-yl)-4-(4-fluorophenyl)-N-methylthiazol-2-amine], 0.01 to 100 nM.
As for `CCc1nc2ccc(C3=NC(C(=O)O)CO3)cn2c1N(C)c1nc(-c2ccc(F)cc2)cs1` (stereo not shown) [Compound 238, 2-(2-ethyl-3-((4-(4-fluorophenyl)thiazol-2-yl)(methyl)amino)imidazo[1,2-a]pyridin-6-yl)-4,5-dihydro-oxazole-4-carboxylic acid], the IC50 lay within 100 to 500 nM.
As to `CCc1nc2ccc(N3CCN(C(=O)OC(C)(C)C)CC3)cn2c1N(C)c1nc(-c2ccc(Cl)cc2)cs1` [Compound 234, tert-butyl 4-(3-((4-(4-chlorophenyl)thiazol-2-yl)(methyl)amino)-2-ethylimidazo[1,2-a]pyridin-6-yl)piperazine-1-carboxylate], the IC50 fell in the range of 0.01 to 100 nM.
The same measure, in the same setting: the value for `CCc1nc2ccc(N3CCC(F)(F)CC3)cn2c1N(C)c1nc(-c2ccc(F)cc2)cs1` [Compound 232, N-(6-(4,4-difluoropiperidin-1-yl)-2-ethylimidazo[1,2-a]pyridin-3-yl)-4-(4-fluorophenyl)-N-methylthiazol-2-amine] was 0.01 to 100 nM; that for `CCc1nc2ccc(C3=NC(C)CO3)cn2c1N(C)c1nc(-c2ccc(F)cc2)cs1` (stereo not shown) [Compound 237, N-(2-ethyl-6-(4-methyl-4,5-dihydrooxazol-2-yl)imidazo[1,2-a]pyridin-3-yl)-4-(4-fluorophenyl)-N-methylthiazol-2-amine] was 0.01 to 100 nM.
Take `CCc1nc2ccc(C3=CCN(C(=O)OC(C)(C)C)CC3)cn2c1N(C)c1nc(-c2ccc(Cl)cc2)cs1` [Compound 230, tert-butyl 4-(3-((4-(4-chlorophenyl)thiazol-2-yl)(methyl)amino)-2-ethylimidazo[1,2-a]pyridin-6-yl)-5,6-dihydropyridine-1(2H)-carboxylate]: the IC50 was 0.01 to 100 nM.
As to `CCc1nc2ccc(C3CCN(S(C)(=O)=O)CC3)cn2c1N(C)c1nc(-c2ccc(F)cc2)c(Br)s1` [Compound 135, 5-bromo-N-(2-ethyl-6-(1-(methylsulfonyl)piperidin-4-yl)imidazo [1,2-a]pyridin-3-yl)-4-(4-fluorophenyl)-N-methylthiazol-2-amine], the IC50 lay in the range of 0.01 to 100 nM.
For `CCc1nc2ccc(C3=NCC(C)O3)cn2c1N(C)c1nc(-c2ccc(F)cc2)cs1` (stereo not shown) [Compound 236, N-(2-ethyl-6-(5-methyl-4,5-dihydrooxazol-2-yl)imidazo[1,2-a]pyridin-3-yl)-4-(4-fluorophenyl)-N-methylthiazol-2-amine], the IC50 is 100 to 500 nM.
